We go through 1 molecule from ChEMBL document CHEMBL1141994, “Identification of an agonist ligand for estrogen-related receptors ERRbeta/gamma” (Bioorg Med Chem Lett, 2005).

What all share (assay type): functional
The target in test [1] is T1, Steroid hormone receptor ERR2 (Homo sapiens) (UniProt O95718).
T1 sequence (whole entry): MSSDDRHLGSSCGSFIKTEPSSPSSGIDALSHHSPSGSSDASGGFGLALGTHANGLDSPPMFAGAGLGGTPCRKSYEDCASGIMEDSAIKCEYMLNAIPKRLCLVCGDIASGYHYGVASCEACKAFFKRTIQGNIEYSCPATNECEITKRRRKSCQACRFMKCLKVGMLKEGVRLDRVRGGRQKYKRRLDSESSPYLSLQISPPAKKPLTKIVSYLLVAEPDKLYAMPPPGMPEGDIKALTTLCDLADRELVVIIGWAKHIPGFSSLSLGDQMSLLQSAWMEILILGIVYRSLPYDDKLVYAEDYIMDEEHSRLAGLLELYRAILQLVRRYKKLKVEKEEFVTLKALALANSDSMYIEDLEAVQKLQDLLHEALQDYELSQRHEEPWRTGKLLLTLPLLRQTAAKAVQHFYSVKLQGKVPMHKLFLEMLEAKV
Kind of test: Fold activation of estrogen-related receptor beta at 100 nM in cell-based reporter gene assay. In general terms: A reporter such as luciferase makes a cellular process visible.

Test [2] concerns the target T2, Steroid hormone receptor ERR1 (Homo sapiens) (UniProt P11474).
T2 sequence (whole entry): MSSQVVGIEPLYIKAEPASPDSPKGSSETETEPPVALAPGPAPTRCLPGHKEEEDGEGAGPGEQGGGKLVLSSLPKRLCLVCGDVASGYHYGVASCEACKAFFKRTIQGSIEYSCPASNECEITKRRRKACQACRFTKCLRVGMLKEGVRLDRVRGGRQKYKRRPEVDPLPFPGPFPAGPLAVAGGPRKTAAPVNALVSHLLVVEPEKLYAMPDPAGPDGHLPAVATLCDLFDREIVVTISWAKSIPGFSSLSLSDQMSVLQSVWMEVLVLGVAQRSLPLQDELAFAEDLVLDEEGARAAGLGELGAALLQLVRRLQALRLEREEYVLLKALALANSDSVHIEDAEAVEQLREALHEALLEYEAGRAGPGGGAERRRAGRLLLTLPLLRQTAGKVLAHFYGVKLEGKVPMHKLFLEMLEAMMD
Kind of test: Fold activation of estrogen-related receptor alpha at 100 nM in cell-based reporter gene assay.

Test [3] has as its target T3, Estrogen-related receptor gamma (Homo sapiens) (UniProt P62508).
T3 sequence (whole entry): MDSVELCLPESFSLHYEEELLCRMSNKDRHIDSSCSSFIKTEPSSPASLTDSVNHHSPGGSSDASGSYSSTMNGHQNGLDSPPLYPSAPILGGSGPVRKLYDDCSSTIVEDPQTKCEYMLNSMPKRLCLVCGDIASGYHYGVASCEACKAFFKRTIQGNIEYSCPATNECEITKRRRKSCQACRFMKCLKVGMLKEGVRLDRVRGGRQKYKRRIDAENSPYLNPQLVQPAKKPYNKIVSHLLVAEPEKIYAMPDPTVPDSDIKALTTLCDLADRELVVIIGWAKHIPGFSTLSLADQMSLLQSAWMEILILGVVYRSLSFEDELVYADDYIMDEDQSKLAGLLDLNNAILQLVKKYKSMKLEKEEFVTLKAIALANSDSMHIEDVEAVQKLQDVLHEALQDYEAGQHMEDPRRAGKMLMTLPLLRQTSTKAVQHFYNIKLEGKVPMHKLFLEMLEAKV
As to the kind of experiment: Fold activation of estrogen-related receptor gamma at 100 nM in cell-based reporter gene assay.

With `C[C@]12CC[C@@H]3c4ccc(O)cc4CC[C@H]3[C@@H]1CC[C@@H]2O`, the figures for the Activity in test [1], in test [2] and in test [3] were 1, 1.1 and 0.8, respectively.
